The test deals with T1, GST-ALK5 (Homo sapiens, UniProt P36897).
T1 sequence (P36897 34-503): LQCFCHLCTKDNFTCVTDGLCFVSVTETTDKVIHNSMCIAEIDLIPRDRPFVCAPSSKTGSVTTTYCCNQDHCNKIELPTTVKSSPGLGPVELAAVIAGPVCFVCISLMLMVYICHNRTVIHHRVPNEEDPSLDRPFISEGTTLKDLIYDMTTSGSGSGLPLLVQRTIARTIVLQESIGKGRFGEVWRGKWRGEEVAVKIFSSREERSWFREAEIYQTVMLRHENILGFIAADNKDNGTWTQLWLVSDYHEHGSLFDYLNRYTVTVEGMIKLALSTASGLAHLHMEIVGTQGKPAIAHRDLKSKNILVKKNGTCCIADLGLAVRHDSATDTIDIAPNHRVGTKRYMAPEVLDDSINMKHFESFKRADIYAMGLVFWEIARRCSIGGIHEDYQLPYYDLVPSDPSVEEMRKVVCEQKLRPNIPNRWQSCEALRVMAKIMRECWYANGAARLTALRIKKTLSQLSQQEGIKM
In words: In-vitro (enzyme) kinase assay, 384-well flashplate, GST-SMAD2 substrate. It counts as biochemical. The note with it: 31.2 nM GST-ALK5, 439 nM GST-SMAD2, 3 mM ATP, 30° C., 45 min. The protocol: In-Vitro (Enzyme) Assay for Determination of the Efficacy of Inhibitors of the Inhibition of TGF-Beta-Mediated Effects
The kinase assay was carried out as 384-well flashplate assay. 31.2 nM of GST-ALK5, 439 nM of GST-SMAD2 and 3 mM of ATP (with 0.3 μCi of ^33P-ATP/well) were incubated in a total volume of 35 μl (20 mM of HEPES, 10 mM of MgCl2, 5 mM of MnCl2, 1 mM of DTT, 0.1% of BSA, pH 7.4) without or with test substance (5-10 concentrations) at 30° C. for 45 min. The reaction was stopped using 25 μl of 200 mM EDTA solution, filtered with suction at room temperature after 30 min, and the wells were washed with 3 times 100 μl of 0.9% NaCl solution. Radioactivity was measured in the TopCount. The IC50 values were calculated using RS1 (Table 1). Above and below, all temperatures were indicated in ° C.
The IC50 is the midpoint of a concentration-inhibition curve. As to `NC(=O)c1sc2nc(OCC3(CO)CC3)nc(-c3cccc(Cl)c3)c2c1N` [No 65, 5-Amino-4-(3-chloro-phenyl)-2-(1-hydroxymethyl-cyclopropylmethoxy)-thieno[2,3-d]pyrimidine-6-carboxylic acid amide], the IC50 lay within 100 to 500 nM.
Consider `Cc1ccc(-c2nc(O[C@@H](C)[C@H](C)O)nc3sc(C(N)=O)c(N)c23)o1` [No 36, 5-Amino-2-((1S,2S)-2-hydroxy-1-methyl-propoxy)-4-(5-methyl-furan-2-yl)-thieno[2,3-d]pyrimidine-6-carboxylic acid amide], for which the IC50 was 100 to 500 nM.
Take `NC(=O)c1sc2nc(OCCN3CCOCC3=O)nc(-c3cccc(Cl)c3)c2c1N` [No 55, 5-Amino-4-(3-chloro-phenyl)-2-[2-(3-oxo-morpholin-4-yl)-ethoxy]-thieno[2,3-d]pyrimidine-6-carboxylic acid amide]: the IC50 is < 100 nM.
The compound `CC(C)(C)OCCOc1nc(-c2cccc(Cl)c2)c2c(N)c(C(N)=O)sc2n1` [No 11, 5-Amino-2-(2-tert-butoxy-ethoxy)-4-(3-chloro-phenyl)-thieno[2,3-d]pyrimidine-6-carboxylic acid amide] displayed an IC50 of 100 to 500 nM.
`C=C(C)CCOc1nc(-c2cccc(C(F)(F)F)c2)c2c(N)c(C(N)=O)sc2n1` [No 17, 5-Amino-2-(3-methyl-but-3-enyloxy)-4-(3-trifluoromethyl-phenyl)-thieno[2,3-d]pyrimidine-6-carboxylic acid amide] came in with an IC50 of 100 to 500 nM.
The figure for `Cn1ccc(COc2nc(-c3cccc(Cl)c3)c3c(N)c(C(N)=O)sc3n2)n1` [No 46, 5-Amino-4-(3-chloro-phenyl)-2-(1-methyl-1H-pyrazol-3-ylmethoxy)-thieno[2,3-d]pyrimidine-6-carboxylic acid amide] is < 100 nM; for `Cc1ccc(-c2nc(OCCO)nc3sc(C(N)=O)c(N)c23)o1` [No 21, 5-Amino-2-(2-hydroxy-ethoxy)-4-(5-methyl-furan-2-yl)-thieno[2,3-d]pyrimidine-6-carboxylic acid amide] it is 100 to 500 nM.
The figure for `NC(=O)c1sc2nc(OCCO)nc(-c3cccc(C(F)(F)F)c3)c2c1N` [No 15, 5-Amino-2-(2-hydroxy-ethoxy)-4-(3-trifluoromethyl-phenyl)-thieno[2,3-d]pyrimidine-6-carboxylic acid amide] is 500 to 1000 nM; for `COc1nc(-c2cccc(C)n2)c2c(N)c(C(N)=O)sc2n1` [No 25, 5-Amino-2-methoxy-4-(6-methyl-pyridin-2-yl)-thieno[2,3-d]pyrimidine-6-carboxylic acid amide] it is < 100 nM.
As for `NC(=O)c1sc2nc(OCCN3CCOC3=O)nc(-c3cccc(Cl)c3)c2c1N` [No 57, 5-Amino-4-(3-chloro-phenyl)-2-[2-(2-oxo-oxazolidin-3-yl)-ethoxy]-thieno[2,3-d]pyrimidine-6-carboxylic acid amide], the IC50 is < 100 nM.
In the case of `Cc1ccc(-c2nc(OCCCn3cccn3)nc3sc(C(N)=O)c(N)c23)o1` [No 39, 5-Amino-4-(5-methyl-furan-2-yl)-2-(3-pyrazol-1-yl-propoxy)-thieno[2,3-d]pyrimidine-6-carboxylic acid amide] it was 100 to 500 nM.
Take `NC(=O)c1sc2nc(OCCCn3cccn3)nc(-c3cccc(Cl)c3)c2c1N` [No 41, 5-Amino-4-(3-chloro-phenyl)-2-(3-pyrazol-1-yl-propoxy)-thieno[2,3-d]pyrimidine-6-carboxylic acid amide]: the IC50 is < 100 nM.
On to `Cc1ncsc1CCOc1nc(-c2cccc(Cl)c2)c2c(N)c(C(N)=O)sc2n1` [No 51, 5-Amino-4-(3-chloro-phenyl)-2-[2-(4-methyl-thiazol-5-yl)-ethoxy]-thieno[2,3-d]pyrimidine-6-carboxylic acid amide], for which the IC50 is < 100 nM.
For the compound `NC(=O)c1sc2nc(OCCN3CCCC3=O)nc(-c3cccc(Cl)c3)c2c1N` [No 48, 5-Amino-4-(3-chloro-phenyl)-2-[2-(2-oxo-pyrrolidin-1-yl)-ethoxy]-thieno[2,3-d]pyrimidine-6-carboxylic acid amide], the 50% inhibitory concentration (IC50) was < 100 nM.
For the compound `Cc1ccc(-c2nc(OCc3cccnc3)nc3sc(C(N)=O)c(N)c23)o1` [No 31, 5-Amino-4-(5-methyl-furan-2-yl)-2-(pyridin-3-ylmethoxy)-thieno[2,3-d]pyrimidine-6-carboxylic acid amide], the IC50 is 100 to 500 nM.
The figure for `Cc1cccc(-c2nc(OCCn3cccn3)nc3sc(C(N)=O)c(N)c23)n1` [No 27, 5-Amino-4-(6-methyl-pyridin-2-yl)-2-(2-pyrazol-1-yl-ethoxy)-thieno[2,3-d]pyrimidine-6-carboxylic acid amide] is < 100 nM.
`Cc1ccc(-c2nc(OCc3ccncc3)nc3sc(C(N)=O)c(N)c23)o1` [No 30, 5-Amino-4-(5-methyl-furan-2-yl)-2-(pyridin-4-ylmethoxy)-thieno[2,3-d]pyrimidine-6-carboxylic acid amide] had an IC50 of 500 to 1000 nM.
In the case of `Cc1ccc(-c2nc(OCc3ccn(C)n3)nc3sc(C(N)=O)c(N)c23)o1` [No 32, 5-Amino-4-(5-methyl-furan-2-yl)-2-(1-methyl-1H-pyrazol-3-ylmethoxy)-thieno[2,3-d]pyrimidine-6-carboxylic acid amide] it was 100 to 500 nM.
The figure for `Cc1ccc(-c2nc(OCCN3CCOCC3)nc3sc(C(N)=O)c(N)c23)o1` [No 20, 5-Amino-4-(5-methyl-furan-2-yl)-2-(2-morpholin-4-yl-ethoxy)-thieno[2,3-d]pyrimidine-6-carboxylic acid amide] is > 1000 nM; for `NC(=O)c1sc2nc(OCC3CCC(CO)CC3)nc(-c3cccc(Cl)c3)c2c1N` (stereo not drawn) [No 67, 5-Amino-4-(3-chloro-phenyl)-2-(4-hydroxymethyl-cyclohexylmethoxy)-thieno[2,3-d]pyrimidine-6-carboxylic acid amide] it is 100 to 500 nM; for `NC(=O)c1sc2nc(OCCn3cccn3)nc(-c3cccc(Cl)c3)c2c1N` [No 42, 5-Amino-4-(3-chloro-phenyl)-2-(2-pyrazol-1-yl-ethoxy)-thieno[2,3-d]pyrimidine-6-carboxylic acid amide] it is < 100 nM.
Regarding `NC(=O)c1sc2nc(OCC3CC3)nc(-c3cccc(C(F)(F)F)c3)c2c1N` [No 14, 5-Amino-2-cyclopropylmethoxy-4-(3-trifluoromethyl-phenyl)-thieno[2,3-d]pyrimidine-6-carboxylic acid amide], the IC50 is > 1000 nM.
In turn, `Cc1cccc(-c2nc(OCCN3CCCC3=O)nc3sc(C(N)=O)c(N)c23)n1` [No 53, 5-Amino-4-(6-methyl-pyridin-2-yl)-2-[2-(2-oxo-pyrrolidin-1-yl)-ethoxy]-thieno[2,3-d]pyrimidine-6-carboxylic acid amide] gave an IC50 of 100 to 500 nM.
On to `NC(=O)c1sc2nc(OCC3CCC3)nc(-c3cccc(C(F)(F)F)c3)c2c1N` [No 10, 5-Amino-2-cyclobutylmethoxy-4-(3-trifluoromethyl-phenyl)-thieno[2,3-d]pyrimidine-6-carboxylic acid amide], for which the IC50 was > 1000 nM.
In the case of `NC(=O)c1sc2nc(OC[C@@H](O)CO)nc(-c3cccc(Cl)c3)c2c1N` [No 18, 5-Amino-4-(3-chloro-phenyl)-2-((S)-2,3-dihydroxy-propoxy)-thieno[2,3-d]pyrimidine-6-carboxylic acid amide] it was 100 to 500 nM; in that of `Cn1nccc1COc1nc(-c2cccc(Cl)c2)c2c(N)c(C(N)=O)sc2n1` [No 47, 5-Amino-4-(3-chloro-phenyl)-2-(2-methyl-2H-pyrazol-3-ylmethoxy)-thieno[2,3-d]pyrimidine-6-carboxylic acid amide], < 100 nM; in that of `NC(=O)c1sc2nc(OCC3CCCC3)nc(-c3cccc(Cl)c3)c2c1N` [No 7, 5-Amino-4-(3-chloro-phenyl)-2-cyclopentylmethoxy-thieno[2,3-d]pyrimidine-6-carboxylic acid amide], 500 to 1000 nM.
The figure for `COc1nc(-c2cccc(C(F)(F)F)c2)c2c(N)c(C(N)=O)sc2n1` [No 5, 5-Amino-2-methoxy-4-(3-trifluoromethyl-phenyl)-thieno[2,3-d]pyrimidine-6-carboxylic acid amide] is 100 to 500 nM.
`NC(=O)c1sc2nc(OCC3CCC3)nc(-c3cccc(Cl)c3)c2c1N` [No 9, 5-Amino-4-(3-chloro-phenyl)-2-cyclobutylmethoxy-thieno[2,3-d]pyrimidine-6-carboxylic acid amide] displayed an IC50 of 100 to 500 nM.
The compound `CC(C)(C)OCCOc1nc(-c2cccc(C(F)(F)F)c2)c2c(N)c(C(N)=O)sc2n1` [No 12, 5-Amino-2-(2-tert-butoxy-ethoxy)-4-(3-trifluoromethyl-phenyl)-thieno[2,3-d]pyrimidine-6-carboxylic acid amide] yielded an IC50 of 500 to 1000 nM.

These data come from patent US20120101095A1, “ALKOXY-THIENOPYRIMIDINES AS TGF-BETA RECEPTOR KINASE MODULATORS” (priority 2009, published 2012).
